# Where “and” joins values, the source holds several entries; their conditions need not be identical. Equal values may be shown once. Entries after “also recorded” stand apart in the source; their conditions may differ. Where a name gives a salt, the structure may show the parent alone. Read-outs that look alike come from different tables or passages of the source.
# Columns and labels:
# [1] = molecular target: T1, EGF receptor (Homo sapiens, UniProt P00533); experiment: 125I-EGF competition radioisotope assay on A431 cells; format: binding; conditions: 4° C., 4 h
# T1 construct: endogenous in cells; host or cells: A431 cells
# Protocol: The retention of EGF binding activity after chemical coupling of ADM-HZN to EGF was determined by a competition radioisotope assay, using the A431 cell line. This cell line was derived from a […] and in our laboratory can bind between 1-4×10^7 molecules of EGF (results not shown). Cells, diluted in RPMI 1640 growth medium containing 10% FCS, were plated in 96-well microtiter plates (5×10^5 cells/well) 24 h before the assay. On the day of the assay, the A431 cells, which grow as an adherent cell population, were washed in DMEM containing 2% bovine serum albumin (hereafter referred to as buffer A). Cells (in triplicate) were incubated with 0.05 ml of 2-fold serially diluted EGF or EGF-ADM, and 0.05 ml of ^125 I-labeled EGF (50 ng/ml) diluted in buffer A (final volume: 0.1 ml/well). The cells were incubated at 4° C. for 4 h, and then washed 3 times with buffer A. The cells were removed from the 96-well plastic plates by solubilization with 1.0M NaOH, and the amount of cell-bound ^125 I-EGF was determined by counting on a LKB model 1272 gamma counter.
# [2] = for % Deaths / D/T, # Deaths/Total Treated: Daudi or Ramos bearing mice
# [3] = system: Ramos tumor xenografts; experiment: In vivo anti-tumor activity on Ramos tumor xenografts; design: species or system BALB/c nude mice; conditions: Q7D×3, i.v. (title: Q1D×1; i.v.)
# [4] = system: Daudi tumor xenografts; experiment: In vivo anti-tumor activity on Daudi tumor xenografts; conditions: for anti-tumor activity: Q5D×2 (days 20 and 25), 4.1 mg/kg/inj ADM and/or 630 mg/kg/inj 5E9
# [5] = N=1, Q1D×1, i.v., ADM 14 mg/kg/inj, cumulative 14
# [6] = N=1, Q2D×2, i.v., ADM 8 mg/kg/inj, cumulative 16
# [7] = N=1, Q2D×2, i.v., ADM 10 mg/kg/inj, cumulative 20
# [8] = N=1, Q2D×2, i.v., ADM 15 mg/kg/inj, cumulative 30
# [9] = N=1, Q3D×2, i.v., ADM 12 mg/kg/inj, cumulative 24
# [10] = N=1, Q3D×2, i.v., ADM 14 mg/kg/inj, cumulative 28
# [11] = N=1, Q3D×2, i.v., ADM 16 mg/kg/inj, cumulative 32
# [12] = N=1, Q4D×2, i.v., ADM 10 mg/kg/inj, cumulative 20
# [13] = N=1, Q4D×2, i.v., ADM 14 mg/kg/inj, cumulative 28
# [14] = N=1, Q4D×3, i.p., ADM 5 mg/kg/inj, cumulative 15
# [15] = N=1, Q5D×2, i.p., ADM 4.1 mg/kg/inj, cumulative 8.2
# [16] = N=1, Q5D×2, i.p., ADM 5.5 mg/kg/inj, cumulative 11
# [17] = N=1, Q7D×3, i.v., ADM 12 mg/kg/inj, cumulative 36
# [18] = N=1, Q8D×2, i.p., ADM 5 mg/kg/inj, cumulative 10
# [19] = N=1, Q8D×2, i.p., ADM 10 mg/kg/inj, cumulative 20
# [20] = N=1, Q8D×2, i.p., ADM 13 mg/kg/inj, cumulative 26
# [21] = N=2, Q2D×2, i.v., ADM 12 mg/kg/inj, cumulative 24
# [22] = N=2, Q4D×2, i.v., ADM 12 mg/kg/inj, cumulative 24
# [23] = N=3, Q1D×1, i.v., ADM 16 mg/kg/inj, cumulative 16
# [24] = N=3, Q7D×3, i.v., ADM 10 mg/kg/inj, cumulative 30
# [25] = N=3, Q7D×3, i.v., ADM 11 mg/kg/inj, cumulative 33
# [26] = N=4 experiments, Q1D×1, i.v., ADM 18 mg/kg/inj, cumulative 18
# [27] = Daudi-bearing mice, 5 mg/kg/inj, cum 10, Q8D×2, i.p.
# [28] = Daudi-bearing mice, 5 mg/kg/inj, cum 15, Q4D×3, i.p.
# [29] = Daudi-bearing mice, 5 mg/kg/inj, cum 15, Q7D×3, i.p.
# [30] = Daudi-bearing mice, 5 mg/kg/inj, cum 15, Q7D×3, i.v.
# [31] = Daudi-bearing mice, 10 mg/kg/inj, cum 30, Q7D×3, i.p.
# [32] = Daudi-bearing mice, 11 mg/kg/inj, cum 33, Q7D×3, i.v., hydrochloride, 11 mg/kg
# [33] = Daudi-bearing mice, 12 mg/kg/inj, cum 12, Q1D×1, i.v.
# [34] = Daudi-bearing mice, 13 mg/kg/inj, cum 26, Q8D×2, i.p.
# [35] = Daudi-bearing mice, 15 mg/kg/inj, cum 15, Q1D×1, i.v.
# [36] = Daudi-bearing mice, 18 mg/kg/inj, cum 18, Q1D×1, i.v.
# [37] = Daudi-bearing mice, 20 mg/kg/inj, cum 20, Q1D×1, i.v.
# [38] = Ramos-bearing mice, 16 mg/kg/inj, Q7D×3, i.v. (title: Q1D×1; i.v.)
# [39] = Ramos-bearing mice, 18 mg/kg/inj, Q7D×3, i.v. (title: Q1D×1; i.v.)
# [40] = 4.1 mg/kg/inj, cum 8.2, Q5D×2, i.p.
# [41] = 4.5 mg/kg/inj, cum 9, Q5D×2, i.p.
# [42] = 5 mg/kg/inj, cum 15, Q7D×3, i.v.
# [43] = 5.5 mg/kg/inj, cum 11, Q5D×2, i.p.
# [44] = 9 mg/kg/inj, cum 27, Q7D×3, i.v.
# [45] = 11 mg/kg/inj, cum 33, Q7D×3, i.v., hydrochloride
# [46] = 12 mg/kg/inj, cum 36, Q7D×3, i.v., hydrochloride
compound,measurement,setting,value
"EGF-ADM: SPDP-thiolated murine EGF reacted with ADM-HZN, 13-keto acylhydrazone linker","inhibition of 125I-EGF binding, binding activity vs unconjugated EGF",[1],only a small loss in binding activity; also recorded: retention of binding activity
"COc1cccc2c1C(=O)c1c(O)c3c(c(O)c1C2=O)C[C@@](O)(C(=O)CO)C[C@@H]3O[C@H]1C[C@H](N)[C@H](O)[C@H](C)O1 [ADM-HCl, adriamycin hydrochloride]",% Deaths,[2]; [5],0%
same,"D/T, # Deaths/Total Treated",[2]; [5],0/8
same,% Deaths,[2]; [6],20%
same,"D/T, # Deaths/Total Treated",[2]; [6],1/5
same,% Deaths,[2]; [7],60%
same,"D/T, # Deaths/Total Treated",[2]; [7],3/5
same,% Deaths,[2]; [8],100%
same,"D/T, # Deaths/Total Treated",[2]; [8],7/7
same,% Deaths,[2]; [9],75%
same,"D/T, # Deaths/Total Treated",[2]; [9],6/8
same,% Deaths,[2]; [10],88%
same,"D/T, # Deaths/Total Treated",[2]; [10],7/8
same,% Deaths,[2]; [11],100%
same,"D/T, # Deaths/Total Treated",[2]; [11],8/8
same,% Deaths,[2]; [12],25%
same,"D/T, # Deaths/Total Treated",[2]; [12],2/8
same,% Deaths,[2]; [13],86%
same,"D/T, # Deaths/Total Treated",[2]; [13],6/7
same,% Deaths,[2]; [14],67%
same,"D/T, # Deaths/Total Treated",[2]; [14],6/9
same,% Deaths,[2]; [15],20%
same,"D/T, # Deaths/Total Treated",[2]; [15],1/5
same,% Deaths,[2]; [16],0%
same,"D/T, # Deaths/Total Treated",[2]; [16],0/8
same,% Deaths,[2]; [17],50%
same,"D/T, # Deaths/Total Treated",[2]; [17],4/8
same,% Deaths,[2]; [18],38%
same,"D/T, # Deaths/Total Treated",[2]; [18],3/8
same,% Deaths,[2]; [19],100%
same,"D/T, # Deaths/Total Treated",[2]; [19],8/8
same,% Deaths,[2]; [20],100%
same,"D/T, # Deaths/Total Treated",[2]; [20],7/7
same,% Deaths,[2]; [21],83%
same,"D/T, # Deaths/Total Treated",[2]; [21],10/12
same,% Deaths,[2]; [22],47%
same,"D/T, # Deaths/Total Treated",[2]; [22],7/15
same,% Deaths,[2]; [23],10%
same,"D/T, # Deaths/Total Treated",[2]; [23],3/31
same,% Deaths,[2]; [24],0%
same,"D/T, # Deaths/Total Treated",[2]; [24],0/24
same,% Deaths,[2]; [25],15%
same,"D/T, # Deaths/Total Treated",[2]; [25],4/26
same,% Deaths,[2]; [26],44%
same,"D/T, # Deaths/Total Treated",[2]; [26],14/32
same,"D/T, deaths/total animals","[2]; Daudi-bearing mice, 4.1 mg/kg/inj, cum 8.2, Q5D×2, i.p.",1/5
same,"D/T, deaths/total animals","[2]; Daudi-bearing mice, 4.5 mg/kg/inj, cum 9, Q5D×2, i.p., hydrochloride, 4.5 mg/kg",0/5 and 0/8
same,"D/T, deaths/total animals",[2]; [27],3/8
same,"Toxicity (%), deaths",[2]; [27],37%
same,"D/T, deaths/total animals",[2]; [28],6/9
same,"Toxicity (%), deaths",[2]; [28],67%
same,"D/T, deaths/total animals",[2]; [29],6/9
same,"Toxicity (%), deaths",[2]; [29],67%
same,"D/T, deaths/total animals",[2]; [30],1/9
same,"Toxicity (%), deaths",[2]; [30],11%
same,"D/T, deaths/total animals","[2]; Daudi-bearing mice, 5.5 mg/kg/inj, cum 11, Q5D×2, i.p.",0/8
same,"D/T, deaths/total animals","[2]; Daudi-bearing mice, 9 mg/kg/inj, cum 27, Q7D×3, i.v.",0/10
same,"D/T, deaths/total animals","[2]; Daudi-bearing mice, 10 mg/kg/inj, cum 20, Q8D×2, i.p.",8/8
same,"D/T, deaths/total animals",[2]; [31],8/8
same,"Toxicity (%), deaths",[2]; [31],100%
same,"D/T, deaths/total animals","[2]; Daudi-bearing mice, 10 mg/kg/inj, cum 30, Q7D×3, i.v., hydrochloride, 10 mg/kg",0/8 and 0/7
same,"D/T, deaths/total animals",[2]; [32],2/8 and 2/10 and 0/8
same,"Toxicity (%), deaths",[2]; [32],25% and 20%
same,"D/T, deaths/total animals",[2]; [33],7/7
same,"Toxicity (%), deaths",[2]; [33],100%
same,"Toxicity (%), deaths","[2]; Daudi-bearing mice, 12 mg/kg/inj, cum 36, Q7D×3, i.v.",50%
same,"D/T, deaths/total animals","[2]; Daudi-bearing mice, 12 mg/kg/inj, cum 36, Q7D×3, i.v., hydrochloride, 12 mg/kg",4/8 and 2/8
same,"D/T, deaths/total animals",[2]; [34],7/7
same,"Toxicity (%), deaths",[2]; [34],100%
same,"D/T, deaths/total animals",[2]; [35],7/7
same,"Toxicity (%), deaths",[2]; [35],100%
same,"D/T, deaths/total animals",[2]; [36],6/8
same,"Toxicity (%), deaths",[2]; [36],75%
same,"D/T, deaths/total animals",[2]; [37],7/7
same,"Toxicity (%), deaths",[2]; [37],100%
same,MTD (maximum tolerated dose),"[2]; Q7D×3, i.v.",11 mg/kg/inj
same,"D/T, deaths/total animals",[2]; [38],1/8
same,"Toxicity (%), deaths (lethality)",[2]; [38],12%
same,"D/T, deaths/total animals",[2]; [39],2/8
same,"Toxicity (%), deaths (lethality)",[2]; [39],25%
same,MTD (maximum tolerated dose),[2]; i.p.,4-5 mg/kg/inj
same,"CR, complete regressions",[3]; 16 mg/kg/inj,0
same,Cures,[3]; 16 mg/kg/inj,0
same,"T-C, delay to reach 3000 mm^3 vs untreated controls",[3]; 16 mg/kg/inj,5 days
same,"TDD, tumor doubling delay",[3]; 16 mg/kg/inj,0.3
same,"CR, complete regressions",[3]; 18 mg/kg/inj,0
same,Cures,[3]; 18 mg/kg/inj,0
same,"T-C, delay to reach 3000 mm^3 vs untreated controls",[3]; 18 mg/kg/inj,8 days
same,"TDD, tumor doubling delay",[3]; 18 mg/kg/inj,0.5
same,"CR, complete regressions",[4]; [40],0
same,Cures,[4]; [40],0
same,"T-C, delay to reach 3000 mm^3 vs untreated controls",[4]; [40],0 days
same,"TDD, tumor doubling delay",[4]; [40],0
same,"CR, complete regressions",[4]; [41],0
same,Cures,[4]; [41],0
same,"T-C, delay to reach 3000 mm^3 vs untreated controls",[4]; [41],2.2 days
same,"CR, complete regressions",[4]; [42],2
same,Cures,[4]; [42],0
same,"T-C, delay to reach 3000 mm^3 vs untreated controls",[4]; [42],6.2 days
same,"TDD, tumor doubling delay",[4]; [42],0.18
same,"CR, complete regressions",[4]; [43],0
same,Cures,[4]; [43],0
same,"T-C, delay to reach 3000 mm^3 vs untreated controls",[4]; [43],2.2 days
same,"TDD, tumor doubling delay",[4]; [43],.1
same,"CR, complete regressions",[4]; [44],0
same,Cures,[4]; [44],1
same,"T-C, delay to reach 3000 mm^3 vs untreated controls",[4]; [44],23 days
same,"TDD, tumor doubling delay",[4]; [44],0.9
same,"CR, complete regressions","[4]; 10 mg/kg/inj, cum 30, Q7D×3, i.v.",0
same,"TDD, tumor doubling delay","[4]; 10 mg/kg/inj, cum 30, Q7D×3, i.v., hydrochloride",0.7 and 0.8
same,"T-C, delay to reach 3000 mm^3 vs untreated controls",[4]; [45],28 days and > 42 days and 21 days
same,"TDD, tumor doubling delay",[4]; [45],1.1 and > 1.3 and 0.7 and > 1.1
same,Cures,"[4]; 12 mg/kg/inj, cum 36, Q7D×3, i.v.",3
same,"T-C, delay to reach 3000 mm^3 vs untreated controls",[4]; [46],> 62 days and > 33 days
same,"TDD, tumor doubling delay",[4]; [46],> 2.0 and > 1.5
same,anti-tumor activity,"[4]; i.p., hydrochloride",no anti-tumor activity
same,anti-tumor activity,"[4]; i.p., listed as ADM, hydrochloride",inactive
same,growth inhibition of Daudi tumor xenografts,"[4]; Q7D×3, i.v., 9, 10 or 11 mg/kg/injection",significantly inhibited in a dose dependent fashion
same,anti-tumor activity at MTD,"[4]; i.p. route, MTD",inactive
